Source: US20230026856A1, “HETEROCYCLIC COMPOUNDS AND METHODS OF USE THEREOF” (SPARCBIO LLC, priority 2020, published 2023)

Key:
KRAS G12C protein = KRAS G12C protein (Homo sapiens, UniProt P01116, G12C); assay: Nucleotide exchange assay, Method III (TR-FRET, association of KRAS G12C with Raf-RBD, SOS1-mediated exchange); assay type: biochemical; settings: overnight (18 hr) incubation with GDP-bound KRAS G12C
Description: Method III. Inhibition of SOS1-mediated exchange of GDP for GTP on the KRAS G12C protein was measured in a biochemical assay that monitors association of KRAS G12C protein with the Ras-binding domain of Raf (Raf-RBD), where the association is coupled to exchange of GDP to GTP on the KRAS G12C protein. The assay was performed at WuXi AppTec (Shanghai, China). Compounds were serially diluted in 3-fold dilutions to 11 concentrations and spotted into the wells of an assay plate in a total volume of 150 nL DMSO per well. A 2× enzyme mix was prepared by diluting GDP-bound, His-tagged KRAS G12C to 25 nM in assay buffer. 10 μL/well of 2× enzyme mix was added to all wells, and the plate was sealed and incubated overnight (18 hr) at 23° C. 4×SOS1/GDP and 4×SOS1/GTP were prepared in assay buffer. 5 μL/well of 4×SOS1/GDP mix was added to negative control wells, 5 μL/well of 4×SOS1/GTP mix was added to the remaining wells, and the plate was further incubated at 23° C. for 1 hr. Finally, FLAG-tagged Raf-RBD is added to the reaction mixture along with a pair of FRET donor- and acceptor-conjugated antibodies specific for the FLAG-tagged Raf-RBD and His-tagged KRAS G12C proteins. A 4× Raf-RBD/Tb-anti-FLAG/D2-anti-His mix was prepared in assay buffer, and 5 μL/well of the mix was added to all wells, followed by incubation at room temperature for 2 hr. The TR-FRET signals, which increase with association of KRAS G12C and Raf-RBD, were measured on a Perkin Elmer Envision 2104 plate reader, and data were analyzed by non-linear regression to obtain IC50 values for inhibition by compounds. Table 2 includes results of the assay of Method III. ‘+++’ indicates IC50 values ≤300 nM, ‘++’ indicates IC50 values between 300 nM-3 μM, and ‘+’ indicates IC50 values ≥3 μM.

NCI-H358 cells = assay: 3D cell proliferation assay (Cell Titer-Glo 3D); assay type: cell-based; settings: Homo sapiens, NCI-H358, 168 h, NCI-H358, 3D (ultra-low attachment); 7 days
Description: NCI-H358 cells (ATCC® CRL-5807™) were plated in a 384-well Black/Clear Round Bottom Ultra-Low Attachment Microplate (Corning) in medium (RPMI-1640+10% FBS) at a density of 1000 cells in 50 μL per well, then incubated overnight at 37° C. and 5% CO2. Cells were treated with test compounds at 9 concentrations within a specified concentration range (e.g., 0.5 nM-10 μM) for generation of dose response curves. Test compounds were prepared by 1:3 serial dilution in DMSO from a specified starting concentration (e.g., 20 μM, 2 μM or 0.2 μM) and then added to wells of the assay plate in a total volume of 150 nL DMSO. The cells were further incubated at 37° C. and 5% CO2 for 7 days. Cell viability was assessed by adding 40 μL of Cell Titer-Glo® 3D reagent (Cat. No.: G9683, Promega) to each well and reading luminescence after mixing and incubation of the samples. The IC50 value of each test compound was calculated with XLFit curve fitting software.

KRAS G12C protein, sequence (P01116 1-188 isoform P01116-2 G12C): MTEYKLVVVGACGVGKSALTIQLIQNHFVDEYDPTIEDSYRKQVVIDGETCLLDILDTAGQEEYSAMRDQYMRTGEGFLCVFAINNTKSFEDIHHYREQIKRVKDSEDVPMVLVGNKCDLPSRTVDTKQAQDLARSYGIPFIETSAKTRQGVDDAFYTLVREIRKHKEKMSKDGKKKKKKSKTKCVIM

Structure (SMILES)	IC50 (KRAS G12C protein) [µM]	IC50 (NCI-H358 cells) [µM]
C=CC(=O)N1CCN(c2c(C(=O)NC)c(=O)n(-c3c(C)ccnc3C(C)C)c3nc(-c4c(O)cccc4F)c(F)cc23)CC1 (single isomer, unassigned) [84 (Isomer A), 4-(4-acryloylpiperazin-1-yl)-6-fluoro-7-(2-fluoro-6-hydroxyphenyl)-1-(2-isopropyl-4-methylpyridin-3-yl)-N-methyl-2-oxo-1,2-dihydro-1,8-naphthyridine-3-carboxamide]	≤ 0.3	0.1 to 2
C=CC(=O)N1CCN(c2c(S(C)(=O)=O)c(=O)n(-c3c(C)ccnc3C(C)C)c3c(F)c(-c4cccc5sc(N)nc45)c(Cl)cc23)CC1 (single isomer, unassigned) [252 (Isomer D), 4-(4-acryloylpiperazin-1-yl)-7-(2-aminobenzo[d]thiazol-4-yl)-6-chloro-8-fluoro-1-(2-isopropyl-4-methylpyridin-3-yl)-3-(methylsulfonyl)quinolin-2(1H)-one]	≤ 0.3	≤ 0.1
C=CC(=O)N1CCN(c2c(S(C)(=O)=O)c(=O)n(-c3c(C)ccnc3C(C)C)c3nc(-c4c(O)cccc4F)c(F)cc23)[C@@H](C)C1 (single isomer, unassigned) [131 (Isomer A)]	0.3 to 3	0.1 to 2
C=CC(=O)N1CCN(c2c(C(=O)NC)c(=O)n(-c3c(C)ccnc3C(C)C)c3nc(-c4cccc5sc(N)nc45)c(F)cc23)CC1 (single isomer, unassigned) [254 (Isomer B), 4-(4-acryloylpiperazin-1-yl)-7-(2-aminobenzo[d]thiazol-4-yl)-6-fluoro-1-(2-isopropyl-4-methylpyridin-3-yl)-N-methyl-2-oxo-1,2-dihydro-1,8-naphthyridine-3-carboxamide]	≤ 0.3	–
C=CC(=O)N1CCC(c2c(C(=O)NC)c(=O)n(-c3c(C)ccnc3C(C)C)c3nc(-c4c(O)cccc4F)c(F)cc23)CC1 (single isomer, unassigned) [68 (Isomer B), 4-(1-acryloylpiperidin-4-yl)-6-fluoro-7-(2-fluoro-6-hydroxyphenyl)-1-(2-isopropyl-4-methylpyridin-3-yl)-N-methyl-2-oxo-1,2-dihydro-1,8-naphthyridine-3-carboxamide]	≥ 3	–
C=CC(=O)N1CCN(c2c(C(=O)NC)c(=O)n(-c3c(C)ccnc3C(C)C)c3nc(-c4c(C)ccc5[nH]ncc45)c(F)cc23)C[C@H]1C (single isomer, unassigned) [114 (Isomer B)]	≤ 0.3	–
C=CC(=O)N1CCN(c2c(S(C)(=O)=O)c(=O)n(-c3c(C)ccnc3C(C)C)c3nc(-c4c(O)cccc4F)c(F)cc23)C[C@H]1C (single isomer, unassigned) [143 (Isomer A)]	0.3 to 3	–
C=CC(=O)N1CCN(c2c(S(C)(=O)=O)c(=O)n(-c3c(C)ccnc3C(C)C)c3c(F)c(-c4c(O)cccc4F)c(Cl)cc23)CC1 (single isomer, unassigned) [176 (Isomer A), 4-(4-acryloylpiperazin-1-yl)-6-chloro-8-fluoro-7-(2-fluoro-6-hydroxyphenyl)-1-(2-isopropyl-4-methylpyridin-3-yl)-3-(methylsulfonyl)quinolin-2(1H)-one]	≥ 3	–
C=CC(=O)N1CCN(c2c(S(C)(=O)=O)c(=O)n(-c3c(C)ccnc3C(C)C)c3nc(-c4c(O)cccc4F)c(F)cc23)CC1 (single isomer, unassigned) [123 (Isomer B), 4-(4-acryloylpiperazin-1-yl)-6-fluoro-7-(2-fluoro-6-hydroxyphenyl)-1-(2-isopropyl-4-methylpyridin-3-yl)-3-(methylsulfonyl)-1,8-naphthyridin-2(1H)-one]	0.3 to 3	–
C=CC(=O)N1CCN(c2c(S(C)(=O)=O)c(=O)n(-c3c(C)ccnc3C(C)C)c3nc(-c4c(O)cccc4F)c(F)cc23)C[C@@H]1CC#N (single isomer, unassigned) [135 (Isomer B)]	0.3 to 3	0.1 to 2
C=CC(=O)N1CCN(c2c(S(C)(=O)=O)c(=O)n(-c3c(C)ccnc3C(C)C)c3nc(-c4c(O)cccc4F)c(F)cc23)C[C@@H]1CC#N (single isomer, unassigned) [135 (Isomer A)]	≥ 3	–
C=CC(=O)N1CCN(c2c(C(=O)NC)c(=O)n(-c3c(C)ccnc3C(C)C)c3nc(-c4cccc5sc(N)nc45)c(F)cc23)C[C@H]1C (single isomer, unassigned) [253 (Isomer A)]	≤ 0.3	–
C=CC(=O)N1CCN(c2c(S(C)(=O)=O)c(=O)n(-c3c(C)ccnc3C(C)C)c3nc(-c4c(C)ccc5[nH]ncc45)c(F)cc23)CC1 (single isomer, unassigned) [124 (Isomer B), 4-(4-acryloylpiperazin-1-yl)-6-fluoro-1-(2-isopropyl-4-methylpyridin-3-yl)-7-(5-methyl-1H-indazol-4-yl)-3-(methylsulfonyl)-1,8-naphthyridin-2(1H)-one]	≥ 3	–
C=CC(=O)N1CCC(n2c(=O)c(=O)n(-c3c(C)ccnc3C(C)C)c3nc(-c4c(O)cccc4F)c(F)cc32)C(C)C1 (single isomer, unassigned) [294 (Isomer E), 1-(1-acryloyl-3-methylpiperidin-4-yl)-7-fluoro-6-(2-fluoro-6-hydroxyphenyl)-4-(2-isopropyl-4-methylpyridin-3-yl)-1,4-dihydropyrido[2,3-b]pyrazine-2,3-dione]	≥ 3	–
C=CC(=O)N1CCN(c2c(S(C)(=O)=O)c(=O)n(-c3c(C)ccnc3C(C)C)c3nc(-c4cccc5sc(N)nc45)c(F)cc23)CC1 (single isomer, unassigned) [250 (Isomer B), 4-(4-acryloylpiperazin-1-yl)-7-(2-aminobenzo[d]thiazol-4-yl)-6-fluoro-1-(2-isopropyl-4-methylpyridin-3-yl)-3-(methylsulfonyl)-1,8-naphthyridin-2(1H)-one]	0.3 to 3	–
C=CC(=O)N1CCN(c2c(C(=O)NC)c(=O)n(-c3c(C)ccnc3C(C)C)c3nc(-c4c(O)cccc4F)c(F)cc23)[C@@H](C)C1 (single isomer, unassigned) [76 (Isomer A)]	0.3 to 3	0.1 to 2
C=CC(=O)N1CCN(c2c(S(C)(=O)=O)c(=O)n(-c3c(C)ccnc3C(C)C)c3c(F)c(-c4c(O)cccc4F)c(Cl)cc23)CC1 (single isomer, unassigned) [176 (Isomer D), 4-(4-acryloylpiperazin-1-yl)-6-chloro-8-fluoro-7-(2-fluoro-6-hydroxyphenyl)-1-(2-isopropyl-4-methylpyridin-3-yl)-3-(methylsulfonyl)quinolin-2(1H)-one]	≤ 0.3	≤ 0.1
C=CC(=O)N1CCN(c2c(C(=O)NC)c(=O)n(-c3c(C)ccnc3C(C)C)c3nc(-c4c(O)cccc4F)c(F)cc23)[C@@H](C)C1 (single isomer, unassigned) [76 (Isomer B)]	≥ 3	–
C=CC(=O)N1CCN(c2c(C(=O)NC)c(=O)n(-c3c(C)ccnc3C(C)C)c3nc(-c4c(O)cccc4F)c(F)cc23)C[C@H]1C (single isomer, unassigned) [82 (Isomer A)]	≤ 0.3	0.1 to 2
C=CC(=O)N1CCN(c2c(C(=O)NC)c(=O)n(-c3c(C)ccnc3C(C)C)c3nc(-c4c(O)cccc4F)c(F)cc23)C[C@@H]1CC#N (single isomer, unassigned) [80 (Isomer A)]	≤ 0.3	0.1 to 2
